Test results from publication PMC4747989, “Bio-conjugation of antioxidant peptide on surface-modified gold nanoparticles: a novel approach to enhance the radical scavenging property in cancer cell” (Cancer Nanotechnology, 2016).
Ends that are not written are not given here.

Experiments:
[1] = test system: Y79 retinoblastoma cells; assay: Cytotoxicity (MTT) assay, Y79; type: cell-based; conditions: 24 and 48 h, 10-100 µM
Description: (§1) Y79 retinoblastoma and MIOM1 cells were seeded at 5 × 10^3 cells/well in 96-well plates and incubated at 37 °C overnight. The cells were then treated with varying concentrations (10, 30, 60, and 100 µM) of Pep-A and Pep-B in a fresh medium and incubated for specific time periods (24 and 48 h). At the end of the incubation, 10 µl of MTT [3-(4, 5-dimethylthiazol-2-yl)-2, 5-diphenyltetrazolium bromide; 5 mg/ml] was added to the cells with fresh medium (100 µl) and incubated at 37 °C until formazan crystals were formed. The formazan crystals were dissolved in 100 µl of DMSO, and the reading was taken at 570 nm (BioTek, ELISA, USA). Cell viability was calculated as Test OD/Control OD × 100.
Cytotoxic effects of GNPs and Pep-A were evaluated by MTT assay as per the protocol described in “Cytotoxicity assay” section. Antioxidant effects of GNPs-Pep-A, bioconjugate were evaluated by measuring the cellular ROS and SOD enzyme activity by similar methods as described in “Measurement of intracellular ROS levels on peptide treatment using 2′, 7′ dichlorodihydrofluorescein (DCF) assay” and “SOD activity measurement” sections, respectively. […] Total RNA was isolated using Trizol, and concentration of RNA was quantified using a Nanodrop (Biospec-Nano,Shimadzu, Biotech, Japan). […] Quantification of target gene expression was performed in triplicate in a 20-µl reaction mixture containing 0.1 µg of cDNA, specific primers (Table 1), and SYBR green reagent in 96-well plates on a real-time PCR system (Applied Biosystems, Singapore). GAPDH and β actin were used as internal controls, and the detection was carried out by measuring the binding of fluorescence dye SYBR green to double-stranded DNA. After cycling, relative quantitation of the tested gene cDNA against the internal control was performed using the ΔCT method. The relative amount of gene-specific mRNA to housekeeping gene was calculated using 2^−ΔΔCt, where Ct, the number of cycles at which amplification reaches a threshold, is determined using SDS software version 1.3.

[2] = test system: MIOM1 (Muller-glial) non-neoplastic cells; assay: Cytotoxicity (MTT) assay, MIOM1; type: cell-based, human; conditions: 24 and 48 h, 10-100 µM
Description: as §1

[3] = test system: Y79 cells; assay: Peptide uptake by flow cytometry (FACS); type: cell-based; conditions: 4 h; for FITC positive population in M2: Y79 RB cells, flow cytometry; for M1 population: Y79 cells, histogram statistic in text, in % (unit assumed)
Description: (§2) The Y79 cells were seeded on the lysine (0.01 mg/ml)-coated glass slide. The cells were cultured overnight and treated with different concentrations (50 or 100 µM) of FITC-tagged Pep-A for 4 h, for studying the localization and internalization of the peptide by fluorescence microscopy. The FITC-labeled peptide A molecules (molecular mass 771.2) were custom synthesized (CPS 1468-1, custom peptide synthesis, USV limited India) with ~95 % purity obtained by HPLC method. The GNPs and GNPs-Pep-A conjugates were doped with the R6G dye as described by Kalmodia et al., for the internalization study (Kalmodia et al. [2013]). The internalization of the peptide, R6G-doped GNPs and GNPs-Pep-A after 4 h was qualitatively detected by Zeiss LSM, 710 laser microscope supplied by Axio vision (Germany). […] Y79 cells were seeded at 2 × 10^5 cells/well in six-well plates and treated with 50 and 100 µM concentrations of Pep-A for 4 h. The cells were then spun at 1500 rpm for 5 min, washed with PBS buffer, and then resuspended in FACS buffer. The cells were then analyzed for uptake of the peptide using FACS Calibur (BD Biosciences, CA, USA) by means of CELL QUEST PRO software. The fluorescence of FITC-stained cells was excited with an argon laser at 488 nm, and the emissions were detected at 530 nm. The overlay graph and scattered plot were used to confirm the FITC positive cell population.

[4] = test system: Y79 cells; assay: Internalization by fluorescence microscopy; type: cell-based; conditions: Y79 RB cells; FITC-labeled Pep-A, R6G dye-doped GNPs and GNPs-Pep-A; 4 h (method), 3 h (Fig. 5 legend)
Description: as §2

uptake into the Y79 cells (in words) ([3]; FACS, 50 and 100 µM) | FITC positive population in M2 ([3]; 50 µM FITC-tagged Pep-A, Fig. 4b) | FITC positive population in M2 ([3]; 100 µM FITC-tagged Pep-A, Fig. 4c) | M1 population ([3]; 50 µM of Pep-A, control 99.99) | M1 population ([3]; second mention printed as 50 µM of Pep-A) | internalization by fluorescence microscopy (in words) [4] | Substance | cytotoxicity to Y79 cells (in words) [1] | cytotoxicity to Y79 cells (in words) ([1]; listed as pep-A) | cytotoxicity to non-cancerous MIO-M1 cells (in words) [2] | cytotoxicity to non-cancerous MIO-M1 cells (in words) ([2]; listed as pep-A)
concentration-dependent uptake | 99% | 99% | 99.97 | 99.95 | internalization | PHCKRM [Pep-A, Pro-His-Cys-Lys-Arg-Met] | no cytotoxicity | no toxicity | no cytotoxicity | no toxicity
 |  |  |  |  |  | TRNYYVRAVL [Pep-B, Thr-Arg-Asn-Tyr-Tyr-Val-Arg-Ala-Val-Leu] | no cytotoxicity |  | no cytotoxicity | 
